Assay results from patent US8053553B2, “Targeting host proteinases as a therapeutic strategy against viral and bacterial pathogens” (Socpra Sciences Sante Et Humaines, priority 2007, dated 2011).
Non-standard residues stand in square brackets, D forms with d. Residues, ends and D or L forms follow the SMILES beside them. Nle = CCCC[C@H](N)C(=O)O; Sar = CNCC(=O)O

Target: T1, furin (Homo sapiens, UniProt P09958)
T1 construct: made in house; host or cells: Drosophila S2 cells (Invitrogen expression system)
Assay: biochemical
Conditions: furin, Pyr-RTKR-AMC substrate; N-terminal deletions (Example 2, Table 6); read-out: Ki

T1 sequence (P09958 108-794 limits assumed): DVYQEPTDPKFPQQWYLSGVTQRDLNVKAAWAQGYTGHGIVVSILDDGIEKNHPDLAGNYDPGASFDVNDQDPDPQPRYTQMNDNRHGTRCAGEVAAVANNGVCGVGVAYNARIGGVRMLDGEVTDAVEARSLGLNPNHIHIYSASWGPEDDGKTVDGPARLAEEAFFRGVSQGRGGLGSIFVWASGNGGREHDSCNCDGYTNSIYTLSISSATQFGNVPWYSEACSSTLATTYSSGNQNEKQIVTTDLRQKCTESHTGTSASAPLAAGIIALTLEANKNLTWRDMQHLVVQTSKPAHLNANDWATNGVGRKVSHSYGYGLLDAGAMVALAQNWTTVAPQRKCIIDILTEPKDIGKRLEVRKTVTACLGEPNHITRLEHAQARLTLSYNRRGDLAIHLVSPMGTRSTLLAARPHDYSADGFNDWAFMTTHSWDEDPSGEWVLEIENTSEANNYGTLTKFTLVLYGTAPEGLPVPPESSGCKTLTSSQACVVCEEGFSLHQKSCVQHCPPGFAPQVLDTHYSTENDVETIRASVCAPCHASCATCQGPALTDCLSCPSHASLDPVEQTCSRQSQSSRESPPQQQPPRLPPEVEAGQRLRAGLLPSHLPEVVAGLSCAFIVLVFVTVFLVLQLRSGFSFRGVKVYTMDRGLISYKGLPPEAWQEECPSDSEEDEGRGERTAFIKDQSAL

Compound	Ki
C[C@@H](O)[C@H](NC(=O)[C@H](CCCNC(=N)N)NC(=O)[C@H](CCCCN)NC(=O)[C@H](CCCCN)NC(=O)[C@@H](N)CCCNC(=N)N)C(N)=O [RKKRT] (H-RKKRT-NH2)	1000 nM

Same assay, conditions: furin, Pyr-RTKR-AMC substrate; alanine scanning mutagenesis of the H5 furin cleavage sequence (Table 2); read-out: Ki

Compound	Ki
C[C@H](NC(=O)[C@H](CCCNC(=N)N)NC(=O)[C@H](CCCNC(=N)N)NC(=O)[C@H](CCCNC(=N)N)NC(=O)[C@H](CCC(=O)O)NC(=O)[C@H](CCCNC(=N)N)NC(=O)[C@@H]1CCCN1C(=O)[C@@H](N)[C@@H](C)O)C(=O)N[C@@H](CCCCN)C(=O)N[C@@H](CCCNC(=N)N)C(N)=O (H-TPRERRRAKR-NH2)	> 100 nM
C[C@H](NC(=O)[C@H](CCCNC(=N)N)NC(=O)[C@H](CCC(=O)O)NC(=O)[C@H](CCCNC(=N)N)NC(=O)[C@@H]1CCCN1C(=O)[C@@H](N)[C@@H](C)O)C(=O)N[C@@H](CCCNC(=N)N)C(=O)N[C@@H](CCCCN)C(=O)N[C@@H](CCCCN)C(=O)N[C@@H](CCCNC(=N)N)C(N)=O (H-TPRERARKKR-NH2)	> 100 nM
CC(C)[C@H](NC(=O)[C@H](CCCNC(=N)N)NC(=O)[C@H](CCCCN)NC(=O)[C@H](CCCCN)NC(=O)[C@H](CCCNC(=N)N)NC(=O)[C@H](CCCNC(=N)N)NC(=O)[C@H](C)NC(=O)[C@H](CCC(=O)O)NC(=O)[C@H](CCCNC(=N)N)NC(=O)[C@@H]1CCCN1C(=O)[C@@H](N)[C@@H](C)O)C(N)=O (H-TPREARRKKRV-NH2)	> 100 nM
C[C@H](NC(=O)[C@H](CCCNC(=N)N)NC(=O)[C@@H]1CCCN1C(=O)[C@@H](N)[C@@H](C)O)C(=O)N[C@@H](CCCNC(=N)N)C(=O)N[C@@H](CCCNC(=N)N)C(=O)N[C@@H](CCCNC(=N)N)C(=O)N[C@@H](CCCCN)C(=O)N[C@@H](CCCCN)C(=O)N[C@@H](CCCNC(=N)N)C(=O)N(C)CC(N)=O	> 100 nM
C[C@H](NC(=O)[C@H](C)NC(=O)[C@H](CCCNC(=N)N)NC(=O)[C@@H]1CCCN1C(=O)[C@@H](N)[C@@H](C)O)C(=O)N[C@@H](CCCNC(=N)N)C(=O)N[C@@H](CCCNC(=N)N)C(=O)N[C@@H](CCCCN)C(=O)N[C@@H](CCCCN)C(=O)N[C@@H](CCCNC(=N)N)C(N)=O (H-TPRAARRKKR-NH2)	> 100 nM
CC(C)[C@H](NC(=O)[C@H](CCCNC(=N)N)NC(=O)[C@H](C)NC(=O)[C@H](CCCCN)NC(=O)[C@H](CCCNC(=N)N)NC(=O)[C@H](CCCNC(=N)N)NC(=O)[C@H](CCCNC(=N)N)NC(=O)[C@H](CCC(=O)O)NC(=O)[C@H](CCCNC(=N)N)NC(=O)[C@@H]1CCCN1C(=O)[C@@H](N)[C@@H](C)O)C(N)=O (H-TPRERRRKARV-NH2)	> 100 nM
C[C@H](NC(=O)[C@H](CCCCN)NC(=O)[C@H](CCCCN)NC(=O)[C@H](CCCNC(=N)N)NC(=O)[C@H](CCCNC(=N)N)NC(=O)[C@H](CCCNC(=N)N)NC(=O)[C@H](CCC(=O)O)NC(=O)[C@H](CCCNC(=N)N)NC(=O)[C@@H]1CCCN1C(=O)[C@@H](N)[C@@H](C)O)C(=O)N(C)CC(N)=O (H-TPRERRRKKA[Sar]-NH2)	> 100 nM
C[C@H](NC(=O)[C@H](CCCNC(=N)N)NC(=O)[C@H](CCCNC(=N)N)NC(=O)[C@H](CCC(=O)O)NC(=O)[C@H](CCCNC(=N)N)NC(=O)[C@@H]1CCCN1C(=O)[C@@H](N)[C@@H](C)O)C(=O)N[C@@H](CCCCN)C(=O)N[C@@H](CCCCN)C(=O)N[C@@H](CCCNC(=N)N)C(=O)N(C)CC(N)=O (H-TPRERRAKKR[Sar]-NH2)	> 100 nM
CC(C)[C@H](NC(=O)[C@H](CCCNC(=N)N)NC(=O)[C@H](CCCCN)NC(=O)[C@H](C)NC(=O)[C@H](C)NC(=O)[C@H](CCCNC(=N)N)NC(=O)[C@H](CCCNC(=N)N)NC(=O)[C@H](CCC(=O)O)NC(=O)[C@H](CCCNC(=N)N)NC(=O)[C@@H]1CCCN1C(=O)[C@@H](N)[C@@H](C)O)C(N)=O (H-TPRERRAAKRV-NH2)	> 100 nM
C[C@H](NC(=O)[C@H](C)NC(=O)[C@H](CCCNC(=N)N)NC(=O)[C@H](CCC(=O)O)NC(=O)[C@H](CCCNC(=N)N)NC(=O)[C@@H]1CCCN1C(=O)[C@@H](N)[C@@H](C)O)C(=O)N[C@@H](CCCCN)C(=O)N[C@@H](CCCCN)C(=O)N[C@@H](CCCNC(=N)N)C(=O)NCC(N)=O (H-TPRERAAKKRG-NH2)	> 100 nM
CC(C)[C@H](NC(=O)[C@H](CCCNC(=N)N)NC(=O)[C@H](CCCCN)NC(=O)[C@H](CCCCN)NC(=O)[C@H](CCCNC(=N)N)NC(=O)[C@H](CCCNC(=N)N)NC(=O)[C@H](CCCNC(=N)N)NC(=O)[C@H](CCC(=O)O)NC(=O)[C@H](C)NC(=O)[C@@H]1CCCN1C(=O)[C@@H](N)[C@@H](C)O)C(N)=O (H-TPAERRRKKRV-NH2)	> 100 nM
C[C@H](NC(=O)[C@H](C)NC(=O)[C@H](CCC(=O)O)NC(=O)[C@H](CCCNC(=N)N)NC(=O)[C@@H]1CCCN1C(=O)[C@@H](N)[C@@H](C)O)C(=O)N[C@@H](C)C(=O)N[C@@H](CCCCN)C(=O)N[C@@H](CCCCN)C(=O)N[C@@H](CCCNC(=N)N)C(N)=O (H-TPREAAAKKR-NH2)	> 100 nM
C[C@H](NC(=O)[C@H](CCCCN)NC(=O)[C@H](CCCNC(=N)N)NC(=O)[C@H](CCCNC(=N)N)NC(=O)[C@H](CCCNC(=N)N)NC(=O)[C@H](CCC(=O)O)NC(=O)[C@H](CCCNC(=N)N)NC(=O)[C@@H]1CCCN1C(=O)[C@@H](N)[C@@H](C)O)C(=O)N[C@@H](C)C(=O)N(C)CC(N)=O (H-TPRERRRKAA[Sar]-NH2)	> 100 nM
C[C@H](NC(=O)[C@H](C)NC(=O)[C@H](CCCNC(=N)N)NC(=O)[C@H](CCCNC(=N)N)NC(=O)[C@H](CCC(=O)O)NC(=O)[C@H](CCCNC(=N)N)NC(=O)[C@@H]1CCCN1C(=O)[C@@H](N)[C@@H](C)O)C(=O)N[C@@H](CCCCN)C(=O)N[C@@H](CCCNC(=N)N)C(=O)NCC(N)=O (H-TPRERRAAKRG-NH2)	> 100 nM
C[C@H](NC(=O)[C@H](C)NC(=O)[C@H](CCCNC(=N)N)NC(=O)[C@H](CCC(=O)O)NC(=O)[C@H](CCCNC(=N)N)NC(=O)[C@@H]1CCCN1C(=O)[C@@H](N)[C@@H](C)O)C(=O)N[C@@H](CCCCN)C(=O)N[C@@H](CCCCN)C(=O)N[C@@H](CCCNC(=N)N)C(=O)N(C)CC(N)=O (H-TPRERAAKKR[Sar]-NH2)	> 100 nM
CC(C)[C@H](NC(=O)[C@H](CCCNC(=N)N)NC(=O)[C@H](CCCCN)NC(=O)[C@H](CCCCN)NC(=O)[C@H](CCCNC(=N)N)NC(=O)[C@H](C)NC(=O)[C@H](C)NC(=O)[C@H](CCC(=O)O)NC(=O)[C@H](CCCNC(=N)N)NC(=O)[C@@H]1CCCN1C(=O)[C@@H](N)[C@@H](C)O)C(N)=O (H-TPREAARKKRV-NH2)	> 100 nM

Same assay, conditions: furin, Pyr-RTKR-AMC substrate; optimization of the inhibitory peptides (Table 3); read-out: Ki

Compound	Ki
C[C@@H](O)[C@H](N)C(=O)N1CCC[C@H]1C(=O)N[C@@H](CCC(N)=O)C(=O)N[C@@H](CCCNC(=N)N)C(=O)N[C@H](C(=O)N[C@@H](CCCNC(=N)N)C(=O)N[C@@H](CCCNC(=N)N)C(=O)N[C@@H](CCCNC(=N)N)C(=O)N[C@@H](CCCCN)C(=O)N[C@@H](CCCCN)C(=O)N[C@@H](CCCNC(=N)N)C(=O)NCC(N)=O)[C@@H](C)O (H-TPQRTRRRKKRG-NH2)	> 100 nM
CCCC[C@H](NC(=O)[C@H](CCCNC(=N)N)NC(=O)[C@H](CCCCN)NC(=O)[C@H](CCCCN)NC(=O)[C@H](CCCNC(=N)N)NC(=O)[C@H](CCCNC(=N)N)NC(=O)[C@H](CCCNC(=N)N)NC(=O)[C@H](C)NC(=O)[C@H](CCCNC(=N)N)NC(=O)[C@H](CCC(N)=O)NC(=O)[C@@H]1CCCN1C(=O)[C@@H](N)[C@@H](C)O)C(N)=O (H-TPQRARRRKKR[Nle]-NH2)	> 100 nM
C[C@@H](O)[C@H](N)C(=O)N1CCC[C@H]1C(=O)N[C@@H](CCC(N)=O)C(=O)N[C@@H](CCCNC(=N)N)C(=O)N[C@H](CCC(=O)O)C(=O)N[C@@H](CCCNC(=N)N)C(=O)N[C@@H](CCCNC(=N)N)C(=O)N[C@@H](CCCNC(=N)N)C(=O)N[C@@H](CCCCN)C(=O)N[C@@H](CCCCN)C(=O)N[C@@H](CCCNC(=N)N)C(=O)NCC(N)=O [TPQReRRRKKRG]	> 100 nM
CC(C)[C@H](NC(=O)[C@H](CCCNC(=N)N)NC(=O)[C@H](CCCCN)NC(=O)[C@H](CCCCN)NC(=O)[C@H](CCCNC(=N)N)NC(=O)[C@H](CCCNC(=N)N)NC(=O)[C@H](CCCNC(=N)N)NC(=O)[C@H](C)NC(=O)[C@H](CCCNC(=N)N)NC(=O)[C@H](CCC(N)=O)NC(=O)[C@@H]1CCCN1C(=O)[C@@H](N)[C@@H](C)O)C(N)=O (H-TPQRARRRKKRV-NH2)	48 nM
CC[C@H](C)[C@H](NC(=O)[C@H](CCCNC(=N)N)NC(=O)[C@H](CCCCN)NC(=O)[C@H](CCCCN)NC(=O)[C@H](CCCNC(=N)N)NC(=O)[C@H](CCCNC(=N)N)NC(=O)[C@H](CCCNC(=N)N)NC(=O)[C@H](C)NC(=O)[C@H](CCCNC(=N)N)NC(=O)[C@H](CCC(N)=O)NC(=O)[C@@H]1CCCN1C(=O)[C@@H](N)[C@@H](C)O)C(N)=O (H-TPQRARRRKKRI-NH2)	> 100 nM
CC[C@H](NC(=O)[C@H](CCCNC(=N)N)NC(=O)[C@H](CCC(N)=O)NC(=O)[C@@H]1CCCN1C(=O)[C@@H](N)[C@@H](C)O)C(=O)N[C@@H](CCCNC(=N)N)C(=O)N[C@@H](CCCNC(=N)N)C(=O)N[C@@H](CCCNC(=N)N)C(=O)N[C@@H](CCCCN)C(=O)N[C@@H](CCCCN)C(=O)N[C@@H](CCCNC(=N)N)C(=O)NCC(N)=O [TPQR8RRRKKRG]	> 100 nM
C[C@H](NC(=O)[C@H](CCCNC(=N)N)NC(=O)[C@H](CCC(N)=O)NC(=O)[C@@H]1CCCN1C(=O)[C@@H](N)[C@@H](C)O)C(=O)N[C@@H](CCCNC(=N)N)C(=O)N[C@@H](CCCNC(=N)N)C(=O)N[C@@H](CCCNC(=N)N)C(=O)N[C@@H](CCCCN)C(=O)N[C@@H](CCCCN)C(=O)N[C@@H](CCCNC(=N)N)C(=O)N[C@H](CCCNC(=N)N)C(N)=O (H-TPQRARRRKKR[dR]-NH2)	> 100 nM
C[C@H](NC(=O)[C@H](CCCNC(=N)N)NC(=O)[C@H](CCC(N)=O)NC(=O)[C@@H]1CCCN1C(=O)[C@@H](N)[C@@H](C)O)C(=O)N[C@@H](CCCNC(=N)N)C(=O)N[C@@H](CCCNC(=N)N)C(=O)N[C@@H](CCCNC(=N)N)C(=O)N[C@@H](CCCCN)C(=O)N[C@@H](CCCCN)C(=O)N[C@@H](CCCNC(=N)N)C(=O)N[C@@H](CC(N)=O)C(N)=O (H-TPQRARRRKKRN-NH2)	> 100 nM
